Non-standard residues stand in square brackets, D forms with d. No end group written: not given here. *: point of attachment. Biotin = O=C1N[C@H]2[C@H](CS[C@H]2CCCCC(=O)*)N1; R(dz) = photo-arginine
Test system: HEK293T nuclear lysates
Assay: SILAC‐based pull‐down proteomics H4K5acK8ac/H4K5 (probes 8/5)
Format: binding, human
Settings: for B6 log2 (H4K5ac8ac/H4K5): replicate B6; for A6 log2 (H4K5ac8ac/H4K5): replicate A6
[1] = protein YWHAB, Bos taurus (CON_00829553.1)

probe 8: H4K5acK8ac peptide probe with photo‐arginine R(dz) and K(biotin) (SG[R(dz)]GK(Ac)GGK(Ac)GLGKGGK(Biotin))
B6 log2 (H4K5ac8ac/H4K5) (protein MYH9 (P35579)): -0.04782 | A6 log2 (H4K5ac8ac/H4K5) (protein NAA10 (P41227)): -0.3046 | B6 log2 (H4K5ac8ac/H4K5) (protein NAA10 (P41227)): 0.05206 | A6 log2 (H4K5ac8ac/H4K5) (protein NACC1 (Q96RE7)): 0.2811 | B6 log2 (H4K5ac8ac/H4K5) (protein NACC1 (Q96RE7)): 0.03418 | A6 log2 (H4K5ac8ac/H4K5) (protein NFXL1 (Q6ZNB6)): 0.2111 | B6 log2 (H4K5ac8ac/H4K5) (protein NFXL1 (Q6ZNB6)): 0.02469 | A6 log2 (H4K5ac8ac/H4K5) (protein NOL9 (Q5SY16)): -0.2567 | B6 log2 (H4K5ac8ac/H4K5) (protein NOL9 (Q5SY16)): -0.02031 | A6 log2 (H4K5ac8ac/H4K5) (protein PA2G4 (Q9UQ80)): 0.1563 | B6 log2 (H4K5ac8ac/H4K5) (protein PA2G4 (Q9UQ80)): 0.03904 | A6 log2 (H4K5ac8ac/H4K5) (protein PACSIN2 (Q9UNF0)): 0 | B6 log2 (H4K5ac8ac/H4K5) (protein PACSIN2 (Q9UNF0)): -0.04928 | A6 log2 (H4K5ac8ac/H4K5) (protein PBX1 (A0A087X0P4)): 0.6964 | B6 log2 (H4K5ac8ac/H4K5) (protein PBX1 (A0A087X0P4)): 0.06283 | A6 log2 (H4K5ac8ac/H4K5) (protein POLR1A (B9ZVN9)): 0.06415 | B6 log2 (H4K5ac8ac/H4K5) (protein POLR1A (B9ZVN9)): -0.04145 | A6 log2 (H4K5ac8ac/H4K5) (protein PPA1 (Q15181)): 0.1577 | B6 log2 (H4K5ac8ac/H4K5) (protein PPA1 (Q15181)): 0.07333 | A6 log2 (H4K5ac8ac/H4K5) (protein PPP1CB (P62140)): -0.299 | B6 log2 (H4K5ac8ac/H4K5) (protein PPP1CB (P62140)): -0.01665 | A6 log2 (H4K5ac8ac/H4K5) (protein PPWD1 (F5H7P7)): -0.2794 | B6 log2 (H4K5ac8ac/H4K5) (protein PPWD1 (F5H7P7)): -0.02682 | A6 log2 (H4K5ac8ac/H4K5) (protein PRPF4 (O43172)): -0.3068 | B6 log2 (H4K5ac8ac/H4K5) (protein PRPF4 (O43172)): -0.007391 | A6 log2 (H4K5ac8ac/H4K5) (protein PRPF19 (Q9UMS4)): -0.3378 | B6 log2 (H4K5ac8ac/H4K5) (protein PRPF19 (Q9UMS4)): 0.03114 | A6 log2 (H4K5ac8ac/H4K5) (protein RAB18 (Q9NP72)): -0.7664 | B6 log2 (H4K5ac8ac/H4K5) (protein RAB18 (Q9NP72)): 0.06785 | A6 log2 (H4K5ac8ac/H4K5) (protein RBBP4 (Q09028)): -0.301 | B6 log2 (H4K5ac8ac/H4K5) (protein RBBP4 (Q09028)): -0.04139 | A6 log2 (H4K5ac8ac/H4K5) (protein RBBP5 (Q15291)): 0.327 | B6 log2 (H4K5ac8ac/H4K5) (protein RBBP5 (Q15291)): 0.03881 | A6 log2 (H4K5ac8ac/H4K5) (protein RBM17 (Q5W011)): -0.1033 | B6 log2 (H4K5ac8ac/H4K5) (protein RBM17 (Q5W011)): -0.0008232 | A6 log2 (H4K5ac8ac/H4K5) (protein RFC4 (C9JTT7)): -0.05533 | B6 log2 (H4K5ac8ac/H4K5) (protein RFC4 (C9JTT7)): 0.05642 | A6 log2 (H4K5ac8ac/H4K5) (protein RIF1 (Q5UIP0)): 0.1175 | B6 log2 (H4K5ac8ac/H4K5) (protein RIF1 (Q5UIP0)): 0.06957 | A6 log2 (H4K5ac8ac/H4K5) (protein RLTPR (Q6F5E8)): 0.7852 | B6 log2 (H4K5ac8ac/H4K5) (protein RLTPR (Q6F5E8)): 0.007574 | A6 log2 (H4K5ac8ac/H4K5) (protein RNF113A (O15541)): -0.4653 | B6 log2 (H4K5ac8ac/H4K5) (protein RNF113A (O15541)): 0.03846 | A6 log2 (H4K5ac8ac/H4K5) (protein RPL18A (M0R3D6)): -0.4315 | B6 log2 (H4K5ac8ac/H4K5) (protein RPL18A (M0R3D6)): -0.04492 | A6 log2 (H4K5ac8ac/H4K5) (protein RPL23 (P62829)): -0.1756 | B6 log2 (H4K5ac8ac/H4K5) (protein RPL23 (P62829)): 0.05216 | A6 log2 (H4K5ac8ac/H4K5) (protein SART1 (O43290)): -0.3683 | B6 log2 (H4K5ac8ac/H4K5) (protein SART1 (O43290)): 0.001654 | A6 log2 (H4K5ac8ac/H4K5) (protein SEPT9 (Q9UHD8)): 0.1535 | B6 log2 (H4K5ac8ac/H4K5) (protein SEPT9 (Q9UHD8)): -0.026 | A6 log2 (H4K5ac8ac/H4K5) (protein SKP1 (E5RJR5)): -0.01806 | B6 log2 (H4K5ac8ac/H4K5) (protein SKP1 (E5RJR5)): 0.0159 | A6 log2 (H4K5ac8ac/H4K5) (protein SMARCC1 (Q92922)): -0.08326 | B6 log2 (H4K5ac8ac/H4K5) (protein SMARCC1 (Q92922)): 0.04543 | A6 log2 (H4K5ac8ac/H4K5) (protein SMC4 (E9PD53)): -0.08362 | B6 log2 (H4K5ac8ac/H4K5) (protein SMC4 (E9PD53)): 0.02245 | A6 log2 (H4K5ac8ac/H4K5) (protein SRP9 (P49458)): -0.01043 | B6 log2 (H4K5ac8ac/H4K5) (protein SRP9 (P49458)): 0.03654 | A6 log2 (H4K5ac8ac/H4K5) (protein SRPRB (H7C4H2)): 0.3686 | B6 log2 (H4K5ac8ac/H4K5) (protein SRPRB (H7C4H2)): 0.07795 | A6 log2 (H4K5ac8ac/H4K5) (protein STRAP (Q9Y3F4)): 0.01226 | B6 log2 (H4K5ac8ac/H4K5) (protein STRAP (Q9Y3F4)): 0.01225 | A6 log2 (H4K5ac8ac/H4K5) (protein STUB1 (Q9UNE7)): 0.5197 | B6 log2 (H4K5ac8ac/H4K5) (protein STUB1 (Q9UNE7)): 0.03834 | A6 log2 (H4K5ac8ac/H4K5) (protein SUGP2 (M0R3F6)): -0.3599 | B6 log2 (H4K5ac8ac/H4K5) (protein SUGP2 (M0R3F6)): 0.02065 | A6 log2 (H4K5ac8ac/H4K5) (protein SYMPK (Q92797)): -0.08997 | B6 log2 (H4K5ac8ac/H4K5) (protein SYMPK (Q92797)): -0.0308 | A6 log2 (H4K5ac8ac/H4K5) (protein TBC1D4 (O60343)): 0.1383 | B6 log2 (H4K5ac8ac/H4K5) (protein TBC1D4 (O60343)): -0.03399 | A6 log2 (H4K5ac8ac/H4K5) (protein TBL3 (Q12788)): -0.1597 | B6 log2 (H4K5ac8ac/H4K5) (protein TBL3 (Q12788)): -0.02533 | A6 log2 (H4K5ac8ac/H4K5) (protein TKT (P29401)): -0.1341 | B6 log2 (H4K5ac8ac/H4K5) (protein TKT (P29401)): 0.0497 | A6 log2 (H4K5ac8ac/H4K5) (protein TMPO (P42167)): 0.4117 | B6 log2 (H4K5ac8ac/H4K5) (protein TMPO (P42167)): 0.03759 | A6 log2 (H4K5ac8ac/H4K5) (protein TTLL12 (Q14166)): 0.2441 | B6 log2 (H4K5ac8ac/H4K5) (protein TTLL12 (Q14166)): 0.0292 | A6 log2 (H4K5ac8ac/H4K5) (protein TXLNG (Q9NUQ3)): 0.4545 | B6 log2 (H4K5ac8ac/H4K5) (protein TXLNG (Q9NUQ3)): -0.0116 | A6 log2 (H4K5ac8ac/H4K5) (protein UHRF1 (Q96T88)): -0.6652 | B6 log2 (H4K5ac8ac/H4K5) (protein UHRF1 (Q96T88)): 0.04746 | A6 log2 (H4K5ac8ac/H4K5) (protein UHRF2 (Q96PU4)): -0.006334 | B6 log2 (H4K5ac8ac/H4K5) (protein UHRF2 (Q96PU4)): 0.0767 | A6 log2 (H4K5ac8ac/H4K5) (protein UPF1 (Q92900)): -0.46 | B6 log2 (H4K5ac8ac/H4K5) (protein UPF1 (Q92900)): -0.01045 | A6 log2 (H4K5ac8ac/H4K5) (protein VAPB (O95292)): -0.312 | B6 log2 (H4K5ac8ac/H4K5) (protein VAPB (O95292)): 0.06269 | A6 log2 (H4K5ac8ac/H4K5) (protein WAPAL (Q7Z5K2)): 0.1532 | B6 log2 (H4K5ac8ac/H4K5) (protein WAPAL (Q7Z5K2)): -0.009146 | A6 log2 (H4K5ac8ac/H4K5) (protein XRCC5 (P13010)): -0.05414 | B6 log2 (H4K5ac8ac/H4K5) (protein XRCC5 (P13010)): -0.03221 | A6 log2 (H4K5ac8ac/H4K5) [1]: -0.1065 | B6 log2 (H4K5ac8ac/H4K5) [1]: 0.02961 | A6 log2 (H4K5ac8ac/H4K5) (protein ZNF330 (Q9Y3S2)): 0.1967 | B6 log2 (H4K5ac8ac/H4K5) (protein ZNF330 (Q9Y3S2)): -0.03674 | A6 log2 (H4K5ac8ac/H4K5) (protein ZNF579 (Q8NAF0)): -0.0908 | B6 log2 (H4K5ac8ac/H4K5) (protein ZNF579 (Q8NAF0)): 0.0364 | A6 log2 (H4K5ac8ac/H4K5) (protein ZZZ3 (Q8IYH5)): -0.06959 | B6 log2 (H4K5ac8ac/H4K5) (protein ZZZ3 (Q8IYH5)): -0.004188

— publication PMC11005723, “Development of Complementary Photo‐arginine/lysine to Promote Discovery of Arg/Lys hPTMs Interactomes” (Advanced Science, 2024)
